Reference: patent publication EP4806898A1, “HETEROARYL DERIVATIVE COMPOUND AND USE THEREOF” (Voronoi Inc., priority 2023, dated 2025)

Experiments:
[1] = target: T1, recombinant USP1 protein (Homo sapiens, UniProt O94782, DEL125-138/DEL229-408/DEL608-737); test: Binding affinity to recombinant USP1 protein by differential scanning fluorimetry; conditions: compound 100 µM; 0.03 mg/mL USP1 (Δ1-66, Δ125-138, Δ229-408, Δ608-737); Tm with compound minus Tm with DMSO; read-out: ΔTm (°C)
T1 sequence (O94782 with tags, fused parts or gaps DEL125-138/DEL229-408/DEL608-737): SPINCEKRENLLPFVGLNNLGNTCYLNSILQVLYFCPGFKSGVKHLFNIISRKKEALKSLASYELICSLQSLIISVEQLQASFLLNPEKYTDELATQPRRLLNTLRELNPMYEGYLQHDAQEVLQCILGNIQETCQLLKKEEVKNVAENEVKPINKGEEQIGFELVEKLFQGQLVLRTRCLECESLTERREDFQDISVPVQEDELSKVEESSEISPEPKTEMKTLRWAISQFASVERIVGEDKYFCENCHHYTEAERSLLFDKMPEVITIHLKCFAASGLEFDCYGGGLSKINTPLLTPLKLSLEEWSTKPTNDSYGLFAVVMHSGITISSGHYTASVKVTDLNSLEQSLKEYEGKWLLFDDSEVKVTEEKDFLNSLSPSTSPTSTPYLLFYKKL
Outline: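 USP1 (Δ1-66, Δ125-138, Δ229-408, Δ608-737) at 0.03 mg/mL with dye in 50 mM Tris-HCl pH 8.0, 150 mM NaCl, 2% glycerol, 1 mM DTT; compounds at 100 µM final. Tm read on real-time PCR instrument; ΔTm = Tm with compound minus Tm with DMSO.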

[2] = system: UWB1.289 cells; test: Cell proliferation inhibitory activity in BRCA1/2-mutant or HRD-positive cells (Cell Titer-Glo); assay type: cell-based; conditions: UWB1289; UWB1.289 cells, 144 hours after compound treatment, Cell Titer-Glo, 1.5 nM to 10 µM; read-out: GI50 UWB1.289 BRCA1 mut
Outline: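 UWB1.289 cells (1,000/well) in 50% MEBM/50% RPMI1640 exposed to […], final 1.5 nM to 10 µM, for 144 h at 37 °C. Viable cells measured by CellTiter-Glo luminescence; GI50 calculated.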

Row | ΔTm at 100 µM [1] [°C] | Compound | GI50 [2] [nM]
1 | > 5 | COc1ncnc(C2CC2)c1-c1ncc2cc(C(=O)NCC3COC3)n(Cc3ccc(-c4nc(C(F)(F)F)cn4C(C)C)cc3)c2n1 [Example 141, 2-(4-cyclopropyl-6-methoxypyrimidin-5-yl)-7-(4-(1-isopropyl-4-(trifluoromethyl)-1H-imidazol-2-yl)benzyl)-N-(oxetan-3-ylmethyl) -7H-pyrrolo[2,3-d]pyrimidine-6-carboxamide] | < 100
2 | > 5 | COc1ncnc(C2CC2)c1-c1ncc2cc(C(=O)N3C[C@H]4C[C@@H]3CO4)n(Cc3ccc(-c4nc(C(F)(F)F)cn4C(C)C)cc3)c2n1 [Example 65, ((1R,4R)-2-oxa-5-azabicyclo[2.2 .1]heptan-5-yl)(2-(4-cyclopropyl-6-methoxypyrimidin-5-yl)-7-(4-(1-isopropyl-4-(trifluoromethyl)-1H-imidazol-2-yl)benzyl)-7H-pyrrolo[2,3-d]pyrimidin-6-yl)methanone] | 100 to 500
3 | > 5 | COc1ncnc(C2CC2)c1-c1ncc2cc(C(=O)N[C@H]3C[C@H](OC)C3)n(Cc3ccc(-c4nc(C(F)(F)F)cn4C(C)C)cc3)c2n1 [Example 122, 2-(4-cyclopropyl-6-methoxypyrimidin-5-yl)-7-(4-(1-isopropyl-4-(trifluoromethyl)-1H-imidazol-2-yl)benzyl)-N-((1r,3r)-3-methoxycyclobutyl)-7H-pyrrolo[2,3-d]pyrimidine-6-carboxamide] | 100 to 500
4 | > 5 | COc1ncnc(C2CC2)c1-c1ncc2cc(C(=O)NC3CCNC3)n(Cc3ccc(-c4nc(C(F)(F)F)cn4C(C)C)cc3)c2n1 (stereo not shown) [Example 41, 2-(4-cyclopropyl-6-methoxypyrimidin-5-yl)-7-(4-(1-isopropyl-4-(trifluoromethyl)-1H-imidazol-2-yl)benzyl)-N-(pyrrolidin-3-yl)-7H-pyrrolo[2,3-d]pyrimidine-6-carboxamide] | < 100
5 | > 5 | COC[C@H](C)NC(=O)c1cc2cnc(-c3c(OC)ncnc3C3CC3)nc2n1Cc1ccc(-c2nc(C(F)(F)F)cn2C(C)C)cc1 [Example 23, (S)-2-(4-cyclopropyl-6-methoxypyrimidin-5-yl)-7-(4-(1-isopropyl-4-(trifluoromethyl)-1H-imidazol-2-yl)benzyl)-N-(1-methoxypropan-2-yl)-7H-pyrrolo[2,3-d]pyrimidine-6-carboxamide] | < 100
6 | > 5 | COc1ncnc(C2CC2)c1-c1ncc2cc(C(=O)NC3CCS(=O)(=O)C3)n(Cc3ccc(-c4nc(C(F)(F)F)cn4C(C)C)cc3)c2n1 (stereo not shown) [Example 78, 2-(4-cyclopropyl-6-methoxypyrimidin-5-yl)-N-(1,1-dioxidotetrahydrothiophen-3-yl)-7-(4-(1-isopropyl-4-(trifluoromethyl)-1H-imidazol-2-yl)benzyl)-7H-pyrrolo[2,3-d]pyrimidine-6-carboxamide] | 100 to 500
7 | > 5 | CNC(=O)c1cc2cnc(-c3c(OC)ncnc3C3CC3)nc2n1Cc1ccc(-c2nc(C(F)(F)F)cn2C(C)C)cc1 [Example 1, 2-(4-cyclopropyl-6-methoxypyrimidin-5-yl)-7-(4-(1-isopropyl-4-(trifluoromethyl)-1H-imidazol-2-yl)benzyl)-N-methyl-7H-pyrrolo[2,3-d]pyrimidine-6-carboxamide] | < 100
8 | > 5 | COc1ncnc(C2CC2)c1-c1ncc2cc(C(=O)N3CCN(C4COC4)CC3)n(Cc3ccc(-c4nc(C(F)(F)F)cn4C(C)C)cc3)c2n1 [Example 25, (2-(4-cyclopropyl-6-methoxypyrimid in-5-yl)-7-(4-(1-isopropyl-4-(trifluoromethyl)-1H-imidazol-2-yl)benzyl)-7H-pyrrolo[2,3-d]pyrimidin-6-yl) (4-(oxetan-3-yl)piperazin-1-yl)methanone] | < 100
9 | > 5 | COc1ncnc(C2CC2)c1-c1ncc2cc(C(=O)NC3CCC(N(C)C)CC3)n(Cc3ccc(-c4nc(C(F)(F)F)cn4C)cc3)c2n1 (stereo not shown) [Example 172] | < 100
10 | > 5 | COc1ncnc(C2CC2)c1-c1ncc2cc(C(=O)N[C@H]3CN(C)C[C@@H]3F)n(Cc3ccc(-c4nc(C(F)(F)F)cn4C)cc3)c2n1 [Example 181, 2-(4-cyclopropyl-6-methoxypyrimidin-5-yl)-N-((3S,4S)-4-fluoro-1-methylpyrrolidin-3-yl)-7-(4-(1-methyl-4-(trifluoromethyl)-1H-imidazol-2-yl)benzyl)-7H-pyrrolo[2,3-d]pyrimidine-6-carboxamide] | < 100
11 | > 5 | COc1ncnc(C2CC2)c1-c1ncc2cc(C(=O)N(C)CCN(C)C)n(Cc3ccc(-c4nc(C(F)(F)F)cn4C(C)C)cc3)c2n1 [Example 38, 2-(4-cyclopropyl-6-methoxypyrimidin-5-yl)-N-(2-(dimethylamino)ethyl)-7-(4-(1-isopropyl-4-(trifluoromethyl)-1H-imidazol-2-yl)benzyl)-N-methyl-7H-pyrrolo [2,3-d]pyrimidine-6-carboxamide] | < 100
12 | > 5 | COc1ncnc(C2CC2)c1-c1ncc2cc(C(=O)N[C@H]3CCN(C)C3)n(Cc3ccc(-c4nc(C(F)(F)F)cn4C(C)C)cc3)c2n1 [Example 174, (S)-2-(4-cyclopropyl-6-methoxypyrimidin-5-yl)-7-(4-(1-isopropyl-4-(trifluoromethyl)-1H-imidazol-2-yl)benzyl)-N-(1-methylpyrrolidin-3-yl)-7H-pyrrolo[2,3-d]pyrimidine-6-carboxamide] | < 100
13 | > 5 | COc1ncnc(C2CC2)c1-c1ncc2cc(C(=O)N[C@@H](C)CO)n(Cc3ccc(-c4nc(C(F)(F)F)cn4C(C)C)cc3)c2n1 [Example 113, (S)-2-(4-cyclopropyl-6-methoxypyrimidin-5-yl)-N-(1-hydroxypropan-2-yl)-7-(4-(1-isopropyl-4-(trifluoromethyl)-1H-imidazol-2-yl)benzyl)-7H-pyrrolo[2,3-d]pyrimidine-6-carboxamide] | < 100
14 | > 5 | COc1ncnc(C2CC2)c1-c1ncc2cc(C(=O)N[C@@H]3CCN(C)C[C@H]3F)n(Cc3ccc(-c4nc(C(F)(F)F)cn4C)cc3)c2n1 [Example 165, 2-(4-cyclopropyl-6-methoxypyrimidin-5-yl)-N-((3R,4R)-3-fluoro-1-methylpiperidin-4-yl)-7-(4-(1-methyl-4-(trifluoromethyl)-1H-imidazol-2-yl)benzyl)-7H-pyrrolo[2,3-d]pyrimidine-6-carboxamide] | < 100
15 | > 5 | COc1ncnc(C2CC2)c1-c1ncc2cc(C(=O)N3CCN4CCCC4C3)n(Cc3ccc(-c4nc(C(F)(F)F)cn4C(C)C)cc3)c2n1 (stereo not shown) [Example 55, (2-(4-cyclopropyl-6-methoxypyrimid in-5-yl)-7-(4-(1-isopropyl-4-(trifluoromethyl)-1H-imidazol-2-yl)benzyl)-7H-pyrrolo[2,3-d]pyrimidin-6-yl) (hexahydrop yrrolo[1,2-a]pyrazin-2 (1H) - yl)methanone] | 100 to 500
16 | > 5 | COC(=O)CNC(=O)c1cc2cnc(-c3c(OC)ncnc3C3CC3)nc2n1Cc1ccc(-c2nc(C(F)(F)F)cn2C(C)C)cc1 [Example 45, methyl (2-(4-cyclopropyl-6-methoxypyrimid in-5-yl)-7-(4-(1-isopropyl-4-(trifluoromethyl)-1H-imidazol-2-yl)benzyl)-7H-pyrrolo[2,3-d]pyrimidine-6-carbonyl)glyci nate] | < 100
17 | > 5 | COc1ncnc(C2CC2)c1-c1ncc2cc(C(=O)N3CCN(C)CC3)n(Cc3ccc(-c4nc(C(F)(F)F)cn4C(C)C)cc3)c2n1 [Example 24, (2-(4-cyclopropyl-6-methoxypyrimid in-5-yl)-7-(4-(1-isopropyl-4-(trifluoromethyl)-1H-imidazol-2-yl)benzyl)-7H-pyrrolo[2,3-d]pyrimidin-6-yl) (4-methylpiperazi n-1-yl)methanone] | < 100
